The species named for the experiment is Homo sapiens. Briefly: Binding affinity to human serum transferrin.

On to `COC1=C[C@@H]2[C@@H]3Cc4ccc(OC)c(O)c4[C@]2(CCN3C)CC1=O`, for which the Ka is 0.68 10^3/M.

Source of the values: ChEMBL document CHEMBL1139133, “A spectroscopic and molecular modeling study of sinomenine binding to transferrin” (Bioorg Med Chem Lett, 2007).
